# Read-outs that look alike come from different tables or passages of the source.
# How the values were obtained:
# [1] = molecular target: GDP-bound KRAS wild-type protein (Homo sapiens, UniProt P01116); assay: Binding to KRAS by surface plasmon resonance (SPR), Single Cycle Kinetics
# [2] = molecular target: GDP-bound NRAS wild-type protein (Homo sapiens, UniProt P01111); assay: Binding to NRAS by surface plasmon resonance (SPR), Single Cycle Kinetics; settings: for NRAS/KRAS (ratio of KD value for NRAS to KD value for KRAS): GDP-bound NRAS wild-type protein vs GDP-bound KRAS wild-type protein
# [3] = molecular target: GDP-bound HRAS wild-type protein (Homo sapiens, UniProt P01112); assay: Binding to HRAS by surface plasmon resonance (SPR), Single Cycle Kinetics; settings: for HRAS/KRAS (ratio of KD value for HRAS to KD value for KRAS): GDP-bound HRAS wild-type protein vs GDP-bound KRAS wild-type protein
# [4] = test system: human lung cancer strain NCI-H441;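 note: cell proliferation inhibition after four days measured by CellTiter-Glo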
# [5] = SPR, Single Cycle Kinetics, 1:1 binding model, GDP-bound KRAS wild-type protein, read-out: KRAS KD
# [6] = SPR, Single Cycle Kinetics, GDP-bound KRAS wild-type protein, read-out: KRAS KD
# Chain of GDP-bound KRAS wild-type protein (P01116 whole entry): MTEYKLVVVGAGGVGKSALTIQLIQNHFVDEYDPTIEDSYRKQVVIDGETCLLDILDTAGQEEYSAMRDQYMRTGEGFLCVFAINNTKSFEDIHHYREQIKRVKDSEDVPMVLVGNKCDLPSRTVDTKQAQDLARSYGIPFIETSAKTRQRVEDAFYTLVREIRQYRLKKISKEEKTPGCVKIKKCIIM
# Chain of GDP-bound NRAS wild-type protein (P01111 whole entry): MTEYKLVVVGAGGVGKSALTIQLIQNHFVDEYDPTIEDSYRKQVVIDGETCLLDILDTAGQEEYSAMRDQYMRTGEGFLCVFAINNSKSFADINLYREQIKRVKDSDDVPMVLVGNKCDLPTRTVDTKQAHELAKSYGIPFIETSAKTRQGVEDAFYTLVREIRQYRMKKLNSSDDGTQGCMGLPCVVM
# Chain of GDP-bound HRAS wild-type protein (P01112 whole entry): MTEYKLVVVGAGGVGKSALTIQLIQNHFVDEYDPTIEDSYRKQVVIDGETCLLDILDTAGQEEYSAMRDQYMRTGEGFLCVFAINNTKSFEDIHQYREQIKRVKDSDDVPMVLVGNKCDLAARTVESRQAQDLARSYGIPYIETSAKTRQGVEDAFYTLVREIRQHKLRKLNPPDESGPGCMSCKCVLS
SMILES,"Kd [1, 5]","NRAS/KRAS (ratio of KD value for NRAS to KD value for KRAS) ([2]; SPR, KD ratio class)","HRAS/KRAS (ratio of KD value for HRAS to KD value for KRAS) ([3]; SPR, KD ratio class)",IC50 [4],"Kd [1, 6]",NRAS/KRAS (ratio of KD value for NRAS to KD value for KRAS) ([2]; SPR),HRAS/KRAS (ratio of KD value for HRAS to KD value for KRAS) ([3]; SPR),further results
CCO[C@@H]1C[C@H]2C(=O)NC3(CCCC3)C(=O)N(C)[C@@H](C3CCCC3)C(=O)N(C)[C@H](C(=O)N(C)C)CC(=O)N(C)[C@@H](CC(C)C)C(=O)N[C@@H]([C@@H](C)CC)C(=O)N(C)CC(=O)N(C)[C@H]3C/C=C\CCN(C3=O)[C@@H](CC3CCC(F)(F)CC3)C(=O)N(C)CC(=O)N[C@@H](CCc3cc(F)c(C(F)(F)F)c(F)c3)C(=O)N2C1 [PP1459],0.2 nM,A (a compound having 10 or more and less than 20 is denoted as A),A (a compound having 10 or more and less than 20 is denoted as A),38.6 nM,,,,
CCC[C@H]1C(=O)N[C@@H]([C@@H](C)CC)C(=O)N2CCC[C@H]2C(=O)N(C)[C@H]2C/C=C\CCN(C2=O)[C@@H](Cc2ccc(C(F)(F)F)cc2)C(=O)N(C)CC(=O)N[C@@H](CCc2ccc(C(F)(F)F)c(OC)c2)C(=O)N2C[C@H](OCC)C[C@H]2C(=O)N(C)C2(CCC2)C(=O)N(C)[C@@H](C2CCCC2)C(=O)N(C)[C@H](C(=O)N2CCCC2)CC(=O)N1C [PP3101],,,,,0.27 nM,A (a compound having 10 or more and less than 20 is denoted as A),A (a compound having 10 or more and less than 20 is denoted as A),"Kd ([1]; SPR, Single Cycle Kinetics, 1:1 binding model, read-out: KD value with respect to GDP-bound KRAS wild-type protein): 0.27 nM; ratio of the KD value with respect to GDP-bound NRAS wild-type protein to the KD value with respect to KRAS ([2]; SPR, KD(NRAS)/KD(KRAS)): A (a compound having 10 or more and less than 20 is denoted as A); ratio of the KD value with respect to GDP-bound HRAS wild-type protein to the KD value with respect to KRAS ([3]; SPR, KD(HRAS)/KD(KRAS)): A (a compound having 10 or more and less than 20 is denoted as A); IC50 ([4]; read-out: NCI-H441 cell proliferation inhibitory activity, 50% proliferation inhibitory concentration (IC50 value), NCI-H441, four days, CellTiter-Glo): 4.9 nM"
CCO[C@@H]1C[C@H]2C(=O)NC3(CCC3)C(=O)N(C)[C@@H](C(CC)CC)C(=O)N(C)[C@H](C(=O)N(C)C)CC(=O)N(C)[C@@H](CC3CC3)C(=O)N[C@@H]([C@@H](C)CC)C(=O)N(C)CC(=O)N(C)[C@H]3C/C=C\CCN(C3=O)[C@@H](Cc3ccc(C(F)(F)F)cc3)C(=O)N(C)CC(=O)N[C@@H](CCc3cc(F)c(Cl)c(F)c3)C(=O)N2C1 [PP1233],0.66 nM,AA (a compound having 20 or more is denoted as AA),A (a compound having 10 or more and less than 20 is denoted as A),34.7 nM,,,,
CCO[C@@H]1C[C@H]2C(=O)NC3(CCC3)C(=O)N(C)[C@@H](C3CCCC3)C(=O)N(C)[C@H](C(=O)N(C)C)CC(=O)N(C)[C@@H](CC(C)(C)C)C(=O)N[C@@H]([C@@H](C)CC)C(=O)N(C)CC(=O)N(C)[C@H]3C/C=C\CCN(C3=O)[C@@H](CC3CCCCC3)C(=O)N(C)CC(=O)N[C@@H](CCc3cc(F)c(C(F)(F)F)c(F)c3)C(=O)N2C1 [PP1474],0.23 nM,A (a compound having 10 or more and less than 20 is denoted as A),A (a compound having 10 or more and less than 20 is denoted as A),48.2 nM,,,,
CCO[C@@H]1C[C@H]2C(=O)NC3(CC(C)(C)C3)C(=O)N(C)[C@@H](C3CCCC3)C(=O)N(C)[C@H](C(=O)N3CCCCC3)CC(=O)N(C)[C@@H](COC)C(=O)N[C@@H]([C@@H](C)CC)C(=O)N(C)CC(=O)N(C)[C@H]3C/C=C\CCN(C3=O)[C@@H](Cc3ccc(C)cc3)C(=O)N(C)CC(=O)N[C@@H](CCc3cc(F)c(C(F)(F)F)c(F)c3)C(=O)N2C1 [PP2668],,,,10.3 nM,,,,"Kd ([1]; SPR Single Cycle Kinetics, GDP-bound KRAS wild-type protein, 1:1 binding model, read-out: KRAS KD): 0.18 nM; NRAS/KRAS (ratio of KD value with respect to GDP-bound NRAS wild-type protein to KD value with respect to KRAS) ([2]; SPR KD ratio NRAS/KRAS, class symbols): A (a compound having 10 or more and less than 20 is denoted as A); HRAS/KRAS (ratio of KD value with respect to GDP-bound HRAS wild-type protein to KD value with respect to KRAS) ([3]; SPR KD ratio HRAS/KRAS, class symbols): A (a compound having 10 or more and less than 20 is denoted as A)"
CCO[C@@H]1C[C@H]2C(=O)NC3(CCC3)C(=O)N(C)[C@@H](C3CCCC3)C(=O)N(C)[C@H](C(=O)N3CCOCC3)CC(=O)N(C)[C@@H](CC(C)C)C(=O)N[C@@H]([C@@H](C)CC)C(=O)N(C)CC(=O)N(C)[C@H]3CCCCCN(C3=O)[C@@H](Cc3ccc4ccsc4c3)C(=O)N(C)CC(=O)N[C@@H](CCc3cc(F)c(C(F)(F)F)c(F)c3)C(=O)N2C1 [PP0921],,,,139 nM,2.6 nM,B (a compound having 3 or more and less than 10 is denoted as B),B (a compound having 3 or more and less than 10 is denoted as B),
CCO[C@@H]1C[C@H]2C(=O)NC3(CCCC3)C(=O)N(C)[C@@H](C3CCCC3)C(=O)N(C)[C@H](C(=O)N(C)C)CC(=O)N(C)[C@@H](CC)C(=O)N[C@@H]([C@@H](C)CC)C(=O)N(C)CC(=O)N(C)[C@H]3CC[C@@H](C)CN(C3=O)[C@@H](Cc3ccc(C(F)(F)F)cc3)C(=O)N(C)CC(=O)N[C@@H](CCc3cc(F)c(C(F)(F)F)c(F)c3)C(=O)N2C1 [PP1370],0.057 nM,C (A compound having a KD ratio of 0.1 or more and less than 3 is denoted as C),C (A compound having a KD ratio of 0.1 or more and less than 3 is denoted as C),2.3 nM,,,,
CCO[C@@H]1C[C@H]2C(=O)NC3(CC(C)(C)C3)C(=O)N(C)[C@@H](C(CC)CC)C(=O)N(C)[C@H](C(=O)N(C)C)CC(=O)N(C)[C@@H](C(C)C)C(=O)N[C@@H]([C@@H](C)CC)C(=O)N(C)CC(=O)N(C)[C@H]3C/C=C\CCN(C3=O)[C@@H](CC3CCC(F)(F)CC3)C(=O)N(C)CC(=O)N[C@@H](CCc3ccc(C(F)(F)F)c(OC)c3)C(=O)N2C1 [PP2477],,,,127 nM,1.8 nM,A (a compound having 10 or more and less than 20 is denoted as A),A (a compound having 10 or more and less than 20 is denoted as A),
CCOC[C@H]1C(=O)N[C@@H]([C@@H](C)CC)C(=O)N(C)CC(=O)N(C)[C@H]2C/C=C\CCN(C2=O)[C@@H](Cc2ccc(C)cc2)C(=O)N(C)CC(=O)N[C@@H](CCc2cc(F)c(C(F)(F)F)c(F)c2)C(=O)N2C[C@H](OCC)C[C@H]2C(=O)NC2(CC(C)(C)C2)C(=O)N(C)[C@@H](C2CCCC2)C(=O)N(C)[C@H](C(=O)N(CC)CC)CC(=O)N1C [PP2408],,,,21.3 nM,0.23 nM,A (a compound having 10 or more and less than 20 is denoted as A),A (a compound having 10 or more and less than 20 is denoted as A),
